Experimental data taken from US12076334B2, “Pharmaceutical composition comprising adenosine derivative for prevention and treatment of retinal disease or optic nerve disease” (FUTURE MEDICINE CO., LTD., priority 2017, dated 2024).
Where two headings read alike, the source gives them in different places.

What was measured:
[1] = system: photoreceptor cells derived from mouse retina; test: ELISA of VEGF in medium of HMGB-1-treated photoreceptor cells; type: cell-based; conditions: increased by HMGB-1; Compound A 0.1 μM or more; 24 h
Description: (§1) Compound A to be used as a test material was prepared by dissolving in DMSO. The prepared solution was stored at −20° C. until use. Treatment of the test material was treated after diluting to 1:1000 (v/v) in a serum-free cell culture medium. The control group was treated after diluting to 1:1000 (v/v) in DMSO.
In order to confirm the efficacy of the test material in reactions related to angiogenesis of photoreceptor cells derived from mouse retina, the medium of cells cultured for 24 hours under various conditions was collected after centrifugation. Quantitative analysis of VEGF present in the medium was analyzed with the Mouse VEGF Quantikine ELISA Kit.

[2] = system: photoreceptor cells derived from mouse retina; test: Immunoblot of angiogenesis- and inflammation-related proteins in HMGB-1-treated photoreceptor cells; type: cell-based; conditions: 24 h
Description: as §1
In order to confirm the efficacy of the test material in reactions related to angiogenesis and inflammatory response of photoreceptor cells derived from mouse retina, cells cultured for 24 hours under various conditions were recovered and intracellular proteins were extracted using a PRO-PREP protein extraction kit. Quantification of the extracted protein was measured using a BCA protein assay kit. 40 μg of protein was separated by 10% SDS-PAGE and then attached to the PVDF membrane. The protein-attached membrane was reacted with TBST (Tris-buffered saline with 0.1% Tween-20) containing 5% skim milk for 30 minutes and the primary antibody and secondary antibody were reacted in sequence. The protein expression level was confirmed by photographing using a Fusion Fximage acquisition system. The protein expression level was analyzed by relative values using ImageJ.
In relation to high mobility group box 1 (HMGB-1), it has been reported that the expression of HMGB-1 was increased when pressure was applied to photoreceptor cells derived from the mouse retina, and when HMGB-1 was treated to photoreceptor cells, angiogenesis-related factors and inflammatory responses increase (Bohm M R et al., Lab Invest, 96, 409-427, 2016). Accordingly, in the present disclosure, the efficacy of adenosine derivatives against angiogenic response and inflammatory response according to damage to photoreceptor cells was verified based on the above reference.

[3] = system: mouse retina-derived photoreceptor cell; test: Immunoblot of apoptosis-related proteins in glutamic acid-treated photoreceptor cells; type: cell-based
Description: (§2) Compound A to be used as a test material was prepared by dissolving in DMSO. The prepared solution was stored at −20° C. until use. In addition, 10 mg of CCCP was dissolved in 1 mL of DMSO to prepare a 50 mM CCCP solution. The prepared solution was stored at −20° C. until use. Treatment of the test material was performed after diluting with a serum-free cell culture medium in 1:1000 (v/v). The control group was treated after diluting with DMSO in 1:1000 v/v).
In order to confirm the efficacy of a test material for angiogenesis-related response and inflammatory response of a mouse retina-derived photoreceptor cell, cells cultured for 24 hours under various conditions were collected and intracellular protein was extracted by using a PRO-PREP protein extraction kit. Quantification of the extracted protein was measured using a BCA protein assay kit. 40 μg of protein was separated by 10% SDS-PAGE and then attached to a PVDF membrane. The protein-attached membrane was reacted with Tris-buffered saline with 0.1% Tween-20 (TBST) containing 5% skim milk for 30 minutes, followed by reactions of primary and secondary antibodies in sequence. The protein expression level was confirmed using photograph by a Fusion Fximage acquisition system. The protein expression level was analyzed by expressing as a relative value using ImageJ.

[4] = system: photoreceptor cells derived from the mouse retina; test: Cell protective effect against glutamic acid-induced cell death (cell viability); type: cell-based; conditions: n=6, read-out: EC50 (50% effective concentration), protection from glutamic acid-induced apoptosis
Description: as §2
This experimental result means that Compound A has a protective effect against glutamic acid-induced apoptosis.

caspase 8 = test: Caspase 8 activity assay (Caspase-Glo 8); type: cell-based, mouse; conditions: pretreatment 1 hour, then 5 mM glutamic acid 24 hours
Description: (§3) The activity of intracellular caspase 8 was analyzed by Caspase-Glo 8 assay system. […] After adding the kit solution in the same amount as the cell culture medium and reacting for 1 hour, the relative activity was analyzed by measuring the amount of generated luminescence through a microplate reader.

[5] = system: photoreceptor cells derived from mouse retina; test: RT-PCR mRNA expression of angiogenesis- and inflammation-related factors in HMGB-1-treated photoreceptor cells; type: cell-based; conditions: increased by HMGB-1, 6 h
Description: as §1
In order to confirm the efficacy of the test material in reactions related to angiogenesis and inflammatory response of photoreceptor cells derived from mouse retina, cells cultured for 6 hours under various conditions were treated with TRIzol solution to isolate total RNA in cells. After the cDNA was synthesized using specific primers for the target gene (Table 2) and reverse transcriptase in the isolated total RNA, expression of the related factors was confirmed. mRNA expression levels were analyzed by expressing as relative values using ImageJ software.

caspase 3/7 = test: Caspase 3/7 activity assay (Caspase-Glo 3/7); type: cell-based, mouse; conditions: pretreatment 1 hour, then 5 mM glutamic acid 24 hours
Description: as §3, with “3/7” for “8”

[6] = system: photoreceptor cells derived from the mouse retina; test: TUNEL assay and DAPI staining of glutamic acid-induced apoptosis; type: cell-based; conditions: pretreated 1 μM 1 hour, then 5 mM glutamic acid 8 hours; vs glutamic acid only
Description: as §2
Quantitative analysis of apoptosis cells was analyzed by DeadEnd™ Fluorometric TUNEL System. […] Cells were washed twice with PBS and fixed with 10% formalin for 15 minutes. Fixed cells were exposed to 0.1% Triton X-100 for 10 minutes. After the cells were reacted with dUTP containing fluorescence, the cut DNA portion was stained and then fixed on a slide with a mounting solution containing DAPI. The stained cells were observed through a fluorescence microscope.

[7] = system: photoreceptor cells derived from mouse retina; test: ELISA of intracellular inflammatory cytokines (TNFα, IL-1β, IL-6) in HMGB-1-treated photoreceptor cells; type: cell-based; conditions: increased by HMGB-1, 24 h
Description: as §1
In order to confirm the efficacy of the test material in reactions related to angiogenesis and inflammatory response of photoreceptor cells derived from mouse retina, cells cultured for 24 hours under various conditions were recovered and intracellular proteins were extracted using a PRO-PREP protein extraction kit. Quantification of the extracted protein was measured using a BCA protein assay kit. Quantitative analysis of inflammatory cytokines (TNFα, IL-1β, IL-6) present in the cells was analyzed with each ELISA kit.

[8] = system: photoreceptor cells derived from the mouse retina; test: Mitochondrial membrane potential analysis (JC-1, flow cytometer); type: cell-based; conditions: for R2 (cell distribution, JC-1 flow cytometry): normal control 13.78 ± 1.12; for R1 (cell distribution, JC-1 flow cytometry): normal control 86.22 ± 1.12
Description: as §2, with “The” for “Compound A to be used as a test material was prepared by dissolving in DMSO. The”
Intracellular mitochondrial cell membrane potential was analyzed using JC-1 reagent. […] Thereafter, […] of JC-1 was treated and incubated for 30 minutes.

[9] = Cytotoxicity of glutamic acid (cell viability, cell proliferation assay kit); type: cell-based; conditions: mouse; 0-9 mM, 24 hours incubation
[10] = HMGB-1 (5 μg/mL), Compound A 2 μM
[11] = HMGB-1 (5 μg/mL), Compound A at least 0.1 μM
[12] = HMGB-1 (5 μg/mL), Compound A at least 0.5 μM
[13] = increased by HMGB-1 (5 μg/mL), Compound A at least 0.5 μM
[14] = changed by glutamic acid, pretreated with Compound A
[15] = increased by glutamic acid, pretreated with Compound A
[16] = pretreatment of Compound A, glutamic acid-treated cells
[17] = pretreated with 1 μM Compound A 1 hour, then 5 mM glutamic acid 6 hours
[18] = cells treated with the agent only (glutamic acid 5 mM 6 hours, or CCCP)

O[C@@H]1[C@H](O)CS[C@H]1n1cnc2c(NCc3cccc(Cl)c3)nc(Cl)nc21 [Compound A, (2R,3R,4S)-2-(2-chloro-6-(3-chlorobenzylamino)-9H-purin-9-yl)tetrahydrothiophene-3,4-diol]
amount of VEGF (ELISA, medium) [1]: significantly decreased | ANG1 protein expression [2, 10]: significantly increased | ICAM1 protein expression [2, 10]: significantly decreased | VCAM1 protein expression [2, 10]: significantly decreased | ANG2 protein expression [2, 11]: significantly decreased | MMP9 protein expression [2, 11]: significantly decreased | VEGFR1 protein expression [2, 11]: significantly decreased | COX2 protein expression [2, 12]: significantly reduced | MMP2 protein expression [2, 12]: significantly reduced | VEGF protein expression [2, 13]: significantly reduced | VEGFR2 protein expression [2, 13]: significantly reduced | BID protein expression [3, 14]: recovered to the same expression level as the normal group | Bad protein expression [3, 14]: recovered to the same expression level as the normal group | Bcl2 protein expression [3, 14]: recovered to the same expression level as the normal group | pBad protein expression [3, 14]: recovered to the same expression level as the normal group | pBcl2 protein expression [3, 14]: recovered to the same expression level as the normal group | RIP protein expression ([3]; decreased by glutamic acid, pretreated with Compound A): increased again in a concentration-dependent manner | caspase 8 protein expression [3, 15]: significantly decreased | cleaved caspase 3 protein expression [3, 15]: significantly decreased | cleaved caspase 9 protein expression [3, 15]: significantly decreased | expression of AIF in the nucleus [3, 16]: decreased significantly | expression of cytochrome c in the cytoplasm [3, 16]: decreased significantly | EC50 ([4]; pretreatment for 30 min): 0.31 ± 0.08 µM | EC50 ([4]; pretreatment for 1 hour): 0.35 ± 0.06 µM | activity of caspase 8 (caspase 8): inhibited in a concentration-dependent manner | COX2 mRNA expression ([5]; Compound A 0.1 μM or more): significantly inhibited | IL-6 mRNA expression ([5]; Compound A 0.1 μM or more): significantly inhibited | VEGF mRNA expression ([5]; Compound A 0.1 μM or more): significant decrease | VEGFR1 mRNA expression ([5]; Compound A 0.1 μM or more): significant decrease | MMP9 mRNA expression ([5]; Compound A 0.5 μM or more): significantly reduced | TNFα mRNA expression ([5]; Compound A 0.5 μM or more): significantly reduced | VEGFR2 mRNA expression ([5]; Compound A 0.5 μM or more): significantly decreased | ICAM1 mRNA expression ([5]; Compound A 1 μM or more): significantly reduced | MMP2 mRNA expression ([5]; Compound A 1 μM or more): significantly reduced | VCAM1 mRNA expression ([5]; Compound A 1 μM or more): significantly reduced | activity of caspase 3/7 (caspase 3/7): inhibited in a concentration-dependent manner | number of TUNEL-positive nuclei [6]: significantly reduced | amount of TNFα in cells (ELISA) ([7]; Compound A 0.1 μM or higher): significantly reduced | amount of IL-1β in cells (ELISA) ([7]; Compound A 1 μM or higher): significantly reduced | amount of IL-6 in cells (ELISA) ([7]; Compound A 1 μM or higher): significantly reduced | R2 (cell distribution, JC-1 flow cytometry) [8, 17]: 28.30 ± 1.60 | R1 (cell distribution, JC-1 flow cytometry) [8, 17]: 71.70 ± 1.60

N[C@@H](CCC(=O)O)C(=O)O [glutamic acid]
IC50 at 24 h [9]: 5100 ± 500 µM | R2 (cell distribution, JC-1 flow cytometry) [8, 18]: 63.87 ± 10.42 | R1 (cell distribution, JC-1 flow cytometry) [8, 18]: 36.13 ± 10.42

N#CC(C#N)=NNc1cccc(Cl)c1 [CCCP]
R2 (cell distribution, JC-1 flow cytometry) [8, 18]: 90.58 ± 1.48 | R1 (cell distribution, JC-1 flow cytometry) [8, 18]: 9.42 ± 1.48
